Data on six compounds can be found in PMC6266505, “Limonoids Containing a C1–O–C29 Moiety: Isolation, Structural Modification, and Antiviral Activity” (Marine Drugs, 2018).

Where two headings read alike, the source gives them in different places. Bounds are passed on as bounds.

The nature of one data set: in vitro. Conditions: human.
The test system of data set [1] is HIV-1. Briefly: microbe, parasite or virus in culture.
Data set [2] deals with HIV-1. The note with it: read-out: IC50 against HIV-1; cited from earlier work.
The conditions of data set [3]: cited from earlier work.
Another data set concerns IAV. Nature of the data set: Anti-IAV bioassay. It counts as cell-based. Conditions: Influenza A virus, read-out: Inhibition Rate (%) against IAV, positive control.
The next data set concerns influenza A virus (IAV). Conditions: cited from earlier work.

As a reminder, the IC50 is the concentration needed to halve the response being measured. Usually inhibition stands for the share of the control response that was lost under treatment. For the compound `C/C=C(\C)C(=O)O[C@@H]1[C@@H]2C=C3[C@@H]4CC(=O)O[C@@H](c5ccoc5)[C@]4(C)CC[C@@H]3[C@]3(C)[C@@H](CC(=O)OC)[C@]1(C)CO[C@]23O` [Compound 6, granatumin L], the CC50 in “in vitro” was over 100 µM. Also, the IC50 in the data set with HIV-1 [1] (Human immunodeficiency virus 1, SUP-T1, read-out: IC50 Value (μM) against HIV-1) worked out at 19.23 ± 0.12 µM. The inhibition at 20 µM in the data set on HIV-1 [1] (Human immunodeficiency virus 1, SUP-T1, read-out: Inhibition Rate (20.0 μM) (%) against HIV-1) was found to be 67.1 ± 3.04%.

With `CC[C@H](C)C(=O)O[C@@H]1C(=O)[C@@]2(OC(=O)C(C)C)[C@@]3(O)C[C@@]1(C)[C@H](CC(=O)OC)[C@@]3(C)[C@H]1CC[C@@]3(C)[C@H](c4ccoc4)OC(=O)C[C@]34O[C@]142` [Krishnolide A], the IC50 with HIV-1 [2] is 17.4 ± 1.65 µM. Further, the CC50 in data set [3] is 78.5 ± 1.69 µM.

For `NC(=O)c1ncn([C@@H]2O[C@H](CO)[C@@H](O)[C@H]2O)n1` [ribavirin], the inhibition at 60 µM in the data set with IAV turned out to be 87.5 ± 2.86%.

Take `COC(=O)C[C@@H]1[C@@]2(C)[C@H]3CC[C@]4(C)C(=C3[C@@]3(O)[C@@H](OC(C)=O)C(=O)[C@]1(C)C[C@@]23O)CC(=O)O[C@H]4c1ccoc1` [thaixylomolin I]: the “antiviral activity against influenza A virus (IAV), in words” value (“antiviral activity” for short) with influenza A virus (IAV) is “moderate antiviral activity”. In addition, in the data set with influenza A virus (IAV) (read-out: IC50 against IAV), the IC50 is 77.1 ± 8.7 µM.

Take `COC(=O)C[C@H]1[C@@]2(C)C[C@]3(O)[C@H](C(=O)[C@H]2OC(C)=O)C2=C4CC(=O)O[C@@H](c5ccoc5)[C@]4(C)CC[C@@H]2[C@]13C` [thaixylomolin K]: the “antiviral activity” value in the data set with influenza A virus (IAV) is “moderate antiviral activity”.

`COC(=O)C[C@H]1[C@@]2(C)C[C@]3(O)[C@H](C(=O)[C@H]2OC(C)=O)C2=C(CC[C@]4(C)C2=CC(=O)O[C@H]4c2ccoc2)[C@]13C` [thaixylomolin M]: the “antiviral activity” value in the data set on influenza A virus (IAV) was “moderate antiviral activity”.
